# Test results published in patent US20110054193A1, “STATIN PRODUCTION” (priority 2008, published 2011).
# Assays:
# [1] = tested on: Penicillium chrysogenum ΔhdfAΔ Pc18g05230; assay: Compactin sensitivity of Penicillium chrysogenum strains, growth in liquid media; type: cell-based; settings: mutant for Pc18g05230 (SEQ ID NO 1); liquid media with different amounts of compactin; 2 days of growth at 25 C
# Procedure: (§1) Fungal growth was performed in a mineral medium, containing (g/L): glucose (5); lactose (35); urea (4.5); (NH4)2SO4 (1.1); Na2SO4 (2.9); KH2PO4 (5.2); K2HPO4 (4.8) and 10 mL/L of a trace element solution containing (in g/l): citric acid (150); FeSO4.7H2O (15); MgSO4.7H2O (150); H3BO3 (0.0075); CuSO4.5H2O (0.24); CoSO4.7H2O (0.375); ZnSO4.7H2O (5); MnSO4.H2O (2.28); CaCl2.2H2O (0.99); pH before sterilization 6.5. Oxoid agar was added at 15 g/l to solidify the medium.
# (§2) Compactin was maintained as a stock solution at 20 g/L in ethanol at −20 C.
# The gene Pc18g05230 was identified as a HMGR encoding gene. In order to prevent the transcription of this gene a selection marker gene was inserted between the promoter and the open reading frame (ORF). To this end the promoter and the ORF were PCR amplified using the oligonucleotides SEQ ID NO 5 plus 6 and SEQ ID NO 7 plus 8, respectively (see FIG. 1). Phusion Hot-Start Polymerase (Finnzymes) was used to amplify the fragments. The fragments obtained are 1539 and 2514 base pairs (bp) in length (SEQ ID NO 31 and SEQ ID NO 32) and contain a 14 bp tail suitable for the so-called STABY cloning method (Eurogentec). From the standard STABY vector, pSTC1.3, two derivatives were obtained. One, pSTamdSL (SEQ ID NO 39), was used for cloning the PCR amplified promoter (SEQ ID NO 31). […]
# [2] = tested on: Penicillium chrysogenum ΔhdfAΔ Pc16g05060; assay: as above; type: cell-based; settings: mutant for Pc16g05060 (SEQ ID NO 9); liquid media with different amounts of compactin; 2 days of growth at 25 C
# Procedure: as §1, §2
# The gene Pc16g05060 was identified as a HMGR encoding gene. In order to prevent the transcription of this gene a selection marker gene was inserted between the promoter and the open reading frame (ORF). To this end the promoter and the ORF were PCR amplified using the oligonucleotides SEQ ID NO 13 plus 14 and SEQ ID NO 15 plus 16, respectively (see FIG. 1). Phusion Hot-Start Polymerase (Finnzymes) was used to amplify the fragments. The fragments obtained are 1539 and 1514 base pairs (bp) in length (SEQ ID NO 35 and SEQ ID NO 36) and contain a 14 bp tail suitable for the so-called STABY cloning method (Eurogentec).
# Spores of the Penicillium chrysogenum mutants for both HMGR encoding genes, Pc18g05230 (SEQ ID NO 1) and Pc16g05060 (SEQ ID NO 9), were inoculated in liquid media with different amounts of compactin.
structure (smiles),measurement,setting,value
"CC[C@H](C)C(=O)O[C@H]1CCC=C2C=C[C@H](C)[C@H](CC[C@@H]3C[C@@H](O)CC(=O)O3)[C@H]21 [Compactin, compactin]","compactin sensitivity of the mutant, in words",[1],increased compactin sensitivity
same,"compactin sensitivity of the mutant, in words",[2],increased compactin sensitivity
